Experiment: in vitro
Details: human, hela cells, % viability

Structure (SMILES) | viability at 28.5 h, 10 µM
O=C(NCCc1c[nH]cn1)NC12CC3CC(CC(C3)C1)C2 [CBK269880] | 86.2%
COc1ccc(CNC(=O)CSc2cnn[nH]2)cc1 [CBK269881] | 85.6%
O=C(O)Cn1nnc(-c2ccncc2)n1 [CBK269884] | 86.6%
Cc1cc(S(=O)(=O)N2CCCC2)ccc1OCC(=O)NCc1ccncc1 [CBK269886] | 91.3%
Cc1ccc(SCCNc2nc3c([nH]2)c(=O)n(C)c(=O)n3C)cc1 [CBK269887] | 92.7%
O=C(Nc1ccc(N2CCOCC2)cc1)c1ccc(-n2cnnc2)cc1Cl [CBK269889] | 91%
COCCn1c(CN2CCOCC2)nc2c1c(=O)[nH]c(=O)n2C [CBK269890] | 100%
Nc1nc2c(s1)c(=O)[nH]c(=O)n2-c1ccc(Cl)cc1 [CBK269891] | 78.1%
COc1c(C)cc(S(=O)(=O)NCCN2CCOCC2)c(C)c1C [CBK269893] | 94.1%
Cc1cc(NS(=O)(=O)N2CCOCC2)no1 [CBK269894] | 89.9%
COc1ccc(CCNc2nc3c([nH]2)c(=O)n(C)c(=O)n3C)cc1 [CBK269897] | 85.5%
CC(=O)Nc1ccc(NC(=O)C2COc3ccccc3O2)cc1C (centres unmarked) [CBK269898] | 99.1%
Fc1ccc(COc2ccc(Cl)cc2CNCc2ccccn2)cc1 [CBK269899C] | 85.5%
O=C(NCc1ccco1)c1cc(S(=O)(=O)N2CCOCC2)ccc1Br [CBK269907] | 90.7%
Cc1ccc2[nH]c(SCc3nc(O)c4ccccc4n3)nc2c1 [CBK269908] | 84%
COc1ccc2c(c1)c1nc(C)sc1n2CCN1CCCCC1 [CBK269909C] | 93.3%
O=S(=O)(NCCCn1ccnc1)c1cccs1 [CBK269912] | 95.1%
COc1ccc2oc(C(=O)NCCN3CCOCC3)c(C)c2c1OC [CBK269913C] | 86.8%
COc1ccc(CNc2ccc(N3CCOCC3)c(C(=O)O)c2)cc1OC [CBK269915] | 95.2%
O=C(CSc1nc2cc(Cl)ccc2[nH]1)Nc1ccccc1F [CBK269916] | 84.8%
COc1ccc(Cl)cc1S(=O)(=O)N(C)CC(=O)O [CBK269919] | 97.1%
Cc1nc(SCC(=O)O)nc(O)c1CCC(C)C [CBK269920] | 92.9%
Cc1ccc(C)c(OCC(=O)Nc2ccccc2C(=O)N2CCN(C)CC2)c1 [CBK269924] | 91.1%
Cc1cc(C)n(CC(=O)NCC2CCCO2)c(=O)c1C#N (centres unmarked) [CBK269926] | 85.4%

Structure (SMILES) | viability at 28.5 h, 10 µM
OCc1nnc2c3ccccc3c(-c3ccccc3)nn12 [CBK269927] | 94.2%
CCOc1ccc(-c2cnc(SCC(=O)O)nc2N)cc1 [CBK269928] | 105%
CC(C)(C)c1ccc(C(=O)Nc2cnn(CCCC(=O)O)c2)cc1 [CBK269929] | 94.2%
CC(NC(=O)OC(C)(C)C)c1nnc(SCC(=O)N(C)C)o1 (centres unmarked) [CBK269932] | 88.3%
CCNC(=O)c1ccccc1NC(=O)C(C)Oc1ccccc1 (centres unmarked) [CBK269933] | 85.8%
CCOc1ccc2ccccc2c1CNCc1cccnc1 [CBK269934C] | 91.8%
O=C(O)COc1ccc(S(=O)(=O)N2CCCc3ccccc32)cc1 [CBK269935] | 110%
CCOC(=O)CSc1nc(=O)cc(N)n1Cc1ccc(F)cc1 [CBK269938] | 91.1%
OCCn1c(COc2cccc3cccnc23)nc2ccccc21 [CBK269942] | 79.5%
O=S(=O)(NCc1cccnc1)N1CCOCC1 [CBK269945] | 85.1%
Cc1nn(Cc2cccc3ccccc23)c(C)c1NC(=O)c1cccnc1 [CBK269946] | 90.6%
CNCc1cccc(OC)c1OCc1ccccc1F [CBK269949C] | 99.2%
CC(=O)Nc1cccc(NC(=O)CN(C)S(=O)(=O)c2ccc(F)cc2)c1 [CBK269951] | 90.2%
CCOc1ccc(S(=O)(=O)N(C)CC(=O)N2CCN(C)CC2)cc1 [CBK269953] | 93.8%
CCOc1cc(C)c(Cl)cc1S(=O)(=O)NCc1ccncc1 [CBK269954] | 85.8%
Cc1[nH]c2cc(C(=O)O)ccc2c1CC(=O)O [CBK269955] | 98%
COc1ccc(OC)c(NC(=O)NCCc2c[nH]cn2)c1 [CBK269956] | 92.4%
NS(=O)(=O)c1ccc(-c2nc(-c3ccccc3)no2)cc1 [CBK269957] | 87.8%
CCOc1ccc(C(=O)Nc2ccc(S(=O)(=O)N3CCN(C)CC3)cc2)cc1 [CBK269959] | 85.5%
Cc1nn(CCC(=O)NCc2ccco2)c(C)c1Cl [CBK269961] | 88.8%
O=C(NCCc1c[nH]c2ccc(F)cc12)Nc1ccccc1 [CBK269964] | 107%
CCOC(=O)CC1C(=O)NCCN1Cc1cccc(C)n1 (centres unmarked) [CBK269965] | 101%
O=C(O)CCCn1cc(NC(=O)c2cc(F)c(F)cc2Cl)cn1 [CBK269967] | 87.8%
CCOc1ccc(S(=O)(=O)N2CCCC(C(=O)NCCO)C2)cc1 (centres unmarked) [CBK269968] | 83.8%

Structure (SMILES) | viability at 28.5 h, 10 µM
COc1ccc(NC(=O)CSc2cnn[nH]2)c(OC)c1 [CBK269969] | 76.7%
Cc1cc(C)nc(Nc2noc(-c3ccccc3)n2)n1 [CBK269971] | 94.5%
CCOc1ccc(N2C(=O)CC(NC3CCN(c4ncccn4)CC3)C2=O)cc1 (centres unmarked) [CBK269972] | 112%
CCOc1cccc(CNc2ccc(N3CCOCC3)c(C(=O)O)c2)c1 [CBK269973] | 92.9%
O=C(NCCc1cnc[nH]1)NC1CCCCC1 [CBK269975] | 100%
CN1CCN(c2nc3c([nH]2)c(=O)n(C)c(=O)n3C)CC1 [CBK269976] | 86.1%
Oc1c(CN2CCOCC2)ccc(CN2CCOCC2)c1O [CBK269979] | 100%
O=C(Nc1ccccc1)c1cccc(S(=O)(=O)NCc2ccncc2)c1 [CBK269980] | 102%
COc1cc(CNC(C)c2ccccc2)ccc1OCC(N)=O (centres unmarked) [CBK269982C] | 92.8%
O=C(COc1ccc2c(c1)OCO2)NCc1ccccn1 [CBK269983] | 95.3%
Cc1cn2c3c(=O)n(CCN4CCOCC4)c(=O)n(C)c3nc2n1CC1CCCO1 (centres unmarked) [CBK269985] | 92.3%
O=C(O)CNS(=O)(=O)c1c(F)c(F)c(F)c(F)c1F [CBK269986] | 84.6%
Fc1ccc(COc2cccc(CNCc3ccccn3)c2)cc1 [CBK269987C] | 109%
COc1cc(S(=O)(=O)NCc2ccncc2)c(C)cc1C [CBK269988] | 91.8%
NC(=O)c1c(NC(=O)CSC2=NCCS2)sc2c1CCCC2 [CBK269989] | 87.9%
Cc1nn(Cc2cccc3ccccc23)c(C)c1NC(=O)c1ccncc1 [CBK269990] | 93.4%
O=C(CSc1nnc(-c2ccccn2)[nH]1)NC1CC2CCC1C2 (centres unmarked) [CBK269994] | 83%
COc1ccc(S(=O)(=O)NCCCn2ccnc2)cc1Cl [CBK269997] | 97.2%
O=C(CSCc1ccc(Cl)c(Cl)c1)Nc1ncccn1 [CBK269998] | 89.7%
COc1ccc(S(=O)(=O)NCCN2CCOCC2)c(Cl)c1Cl [CBK269999] | 95%
COc1ccc(OCc2nnn[nH]2)cc1 [CBK270000] | 89.9%
CC(C)C(NS(=O)(=O)c1ccccc1)C(=O)Nc1ccccc1 (centres unmarked) [CBK270001] | 87.8%
Cn1nc(C(=O)NCc2ccccc2)cc1C(=O)NCc1ccccc1 [CBK270004] | 92%
Cc1ccc(CN2C(=O)CC(Sc3ncccc3C(=O)O)C2=O)cc1 (centres unmarked) [CBK270006] | 91.2%

Structure (SMILES) | viability at 28.5 h, 10 µM
Cc1cccc(Cn2nc(C)c(NC(=O)COc3ccccc3)c2C)c1 [CBK270007] | 93.5%
O=C(O)CC1C(=O)NCCN1Cc1ccc(F)c(F)c1 (centres unmarked) [CBK270008] | 85.3%
COc1cccc(CNC2CC2)c1OCc1ccccc1 [CBK270009C] | 90.6%
COc1ccc(NC(=O)CSc2cnn[nH]2)cc1OC [CBK270010] | 102%
Cc1cc(CNC(=O)c2ccc3c(c2)OCO3)c2ccccc2n1 [CBK270014] | 72.1%
N#Cc1ccccc1NC(=O)CSc1nc2cc(Cl)ccc2[nH]1 [CBK270019] | 99.4%
O=C(Cn1cnc2ccccc2c1=O)Nc1cccc(-c2cnc3ccccc3n2)c1 [CBK270020] | 83.7%
CC(=O)c1c(C)nn(C(C)CC(=O)Nc2ccc(Cl)c(Cl)c2)c1C (centres unmarked) [CBK270021] | 87.3%
O=C(CSc1cnn[nH]1)Nc1ccc(F)cc1 [CBK270024] | 89.6%
COc1cc(CNCc2cccnc2)cc(Cl)c1OCc1cccs1 [CBK270026C] | 96.2%
CCOc1cc(CNCc2ccc(C(=O)O)cc2)ccc1OC [CBK270029C] | 89.7%
Cn1c(=O)c2[nH]c(N3CCCNCC3)nc2n(C)c1=O [CBK270030] | 97%
CC(=O)Nc1cccc(C(=O)N2CCN(Cc3ccc4c(c3)OCO4)CC2)c1 [CBK270031] | 89.2%
CCOc1ccc(S(=O)(=O)N(C)CC(=O)O)cc1 [CBK270032] | 90.4%
Clc1ccc(OCc2nnn[nH]2)c(C2CCCCC2)c1 [CBK270035] | 103%
CCC(Oc1ccc(C)cc1)C(=O)Nc1ccc(S(N)(=O)=O)cc1 (centres unmarked) [CBK270036] | 90.5%
COCC(C)NS(=O)(=O)c1cc(C)ccc1OC (centres unmarked) [CBK270037] | 85.6%
Cc1[nH]c2ccccc2c1C(=O)C(=O)Nc1sc(C)c(C)c1C#N [CBK270038] | 85.9%
Cc1cc(C)n2nc(NC(=O)C(C)Oc3ccccc3)nc2n1 (centres unmarked) [CBK270039] | 89.9%
N#Cc1c(NC(=O)CCn2cnnn2)sc2c1CCC2 [CBK270041] | 93.5%
O=C(O)CCCn1cc(NC(=O)c2ccc(Br)o2)cn1 [CBK270042] | 106%
CSc1nsc(SCC(=O)Nc2ccc3c(c2)OCO3)n1 [CBK270044] | 88.6%
CCOc1ccc2ccccc2c1CNCCSc1nnnn1C [CBK270046C] | 90.6%
